Experimental findings from ChEMBL document CHEMBL1201862, “PubChem BioAssay data set” (2004) are described below.

The source made the active and inactive calls. Where only a bound is given, the exact number is not on record here.

In one experiment the target is Nonstructural protein 1 (Influenza A virus, UniProt Q194T2). It counts as functional, Influenza A virus (A/California/07/2009(H1N1)).
Experiment [1] has as its target Heat shock protein HSP 90-alpha (Homo sapiens, UniProt P07900). The class given is functional, organism-based.
For a further experiment, the system named is Vero. The experiment is described as follows: Vero E6 cell cytotoxicity, dose response, cytotoxicity control (AID 540298). To be noted: Chlorocebus sabaeus. It counts as functional.
Experiment [2] concerns MDCK. The experiment is described as follows: MDCK cell cytotoxicity, dose response, cytotoxicity control (AID 540296). It counts as functional. To be noted: Canis lupus familiaris.
In experiment [3] the target is Delta-type opioid receptor (Homo sapiens, UniProt P41143). Kind of experiment: Counterscreen for agonists of heterodimerization of the mu 1 (OPRM1) and delta 1 (OPRD1) opioid receptors: Luminescence-based cell-based high throughput dose response assay to identify agonists of OPRD1 homodimerization. [Related pubchem assays (depositor defined):AID504326, AID504355, AID504692, AID504904, AID504905]. The class given is functional. Background: Counterscreens check selectivity or assay interference.

Experiment [4] concerns MDCK. Kind of experiment: antiviral activity against H1N1 influenza, dose response, cell-based, strain KY136 (AID 540257). It counts as functional. To be noted: Canis lupus familiaris.
In the next experiment the target is Mu-type opioid receptor (Homo sapiens, UniProt P35372). The experiment is described as follows: Counterscreen for agonists of heterodimerization of the mu 1 (OPRM1) and delta 1 (OPRD1) opioid receptors: Luminescence-based cell-based high throughput dose response assay to identify agonists of OPRM1 homodimerization. The class given is functional.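 Also: U2OS cells expressing OPRM1 and beta-arrestin as split beta-galactosidase partners.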
Experiment [5] concerns the target 5-hydroxytryptamine receptor 5A (Homo sapiens, UniProt P47898). Kind of experiment: Counterscreen for agonists of OPRM1-OPRD1 heterodimerization: luminescence-based cell-based high throughput dose response assay to identify agonists of 5-hydroxytryptamine (serotonin) 5A receptor (HTR5A). [Related pubchem assays (depositor defined):AID504326, AID504355, AID504692, AID504904, AID504905]. It counts as functional.

The target of experiment [6] is T1, Hexokinase-1 (Homo sapiens, UniProt P19367).
T1 sequence (P19367 whole entry): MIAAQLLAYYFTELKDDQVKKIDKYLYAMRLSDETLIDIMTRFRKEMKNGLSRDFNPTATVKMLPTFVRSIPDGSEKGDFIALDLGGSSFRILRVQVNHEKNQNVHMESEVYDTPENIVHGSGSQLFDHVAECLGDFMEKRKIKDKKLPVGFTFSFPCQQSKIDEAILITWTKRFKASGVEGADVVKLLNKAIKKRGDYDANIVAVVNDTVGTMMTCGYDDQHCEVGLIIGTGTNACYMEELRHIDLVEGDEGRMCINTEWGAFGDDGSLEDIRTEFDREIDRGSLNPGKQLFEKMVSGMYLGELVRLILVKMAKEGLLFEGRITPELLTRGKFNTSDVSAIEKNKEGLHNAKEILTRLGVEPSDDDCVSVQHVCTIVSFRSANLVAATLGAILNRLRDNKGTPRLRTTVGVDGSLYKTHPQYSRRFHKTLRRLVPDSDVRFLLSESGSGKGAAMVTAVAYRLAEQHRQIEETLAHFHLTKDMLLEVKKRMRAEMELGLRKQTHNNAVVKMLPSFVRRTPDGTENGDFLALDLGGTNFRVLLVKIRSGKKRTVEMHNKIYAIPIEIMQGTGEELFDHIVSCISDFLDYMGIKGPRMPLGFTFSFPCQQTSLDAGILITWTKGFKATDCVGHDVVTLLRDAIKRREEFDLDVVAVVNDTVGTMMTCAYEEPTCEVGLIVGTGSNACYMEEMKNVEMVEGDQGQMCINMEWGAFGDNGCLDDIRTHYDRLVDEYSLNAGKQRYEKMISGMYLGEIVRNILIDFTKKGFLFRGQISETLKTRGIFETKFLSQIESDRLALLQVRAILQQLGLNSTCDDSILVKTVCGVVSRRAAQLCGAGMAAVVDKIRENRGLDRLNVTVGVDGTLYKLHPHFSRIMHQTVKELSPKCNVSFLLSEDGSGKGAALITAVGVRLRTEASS
The experiment is described as follows: SAR analysis of small molecule inhibitors of hexokinase domain containing I (HKDC1) in the hexokinase 1 selectivity assay. [Related pubchem assays (depositor defined):AID493160, AID493190]. The class given is functional.

The target in experiment [7] is T2, Hexokinase HKDC1 (Homo sapiens, UniProt Q2TB90).
T2 sequence (Q2TB90 whole entry): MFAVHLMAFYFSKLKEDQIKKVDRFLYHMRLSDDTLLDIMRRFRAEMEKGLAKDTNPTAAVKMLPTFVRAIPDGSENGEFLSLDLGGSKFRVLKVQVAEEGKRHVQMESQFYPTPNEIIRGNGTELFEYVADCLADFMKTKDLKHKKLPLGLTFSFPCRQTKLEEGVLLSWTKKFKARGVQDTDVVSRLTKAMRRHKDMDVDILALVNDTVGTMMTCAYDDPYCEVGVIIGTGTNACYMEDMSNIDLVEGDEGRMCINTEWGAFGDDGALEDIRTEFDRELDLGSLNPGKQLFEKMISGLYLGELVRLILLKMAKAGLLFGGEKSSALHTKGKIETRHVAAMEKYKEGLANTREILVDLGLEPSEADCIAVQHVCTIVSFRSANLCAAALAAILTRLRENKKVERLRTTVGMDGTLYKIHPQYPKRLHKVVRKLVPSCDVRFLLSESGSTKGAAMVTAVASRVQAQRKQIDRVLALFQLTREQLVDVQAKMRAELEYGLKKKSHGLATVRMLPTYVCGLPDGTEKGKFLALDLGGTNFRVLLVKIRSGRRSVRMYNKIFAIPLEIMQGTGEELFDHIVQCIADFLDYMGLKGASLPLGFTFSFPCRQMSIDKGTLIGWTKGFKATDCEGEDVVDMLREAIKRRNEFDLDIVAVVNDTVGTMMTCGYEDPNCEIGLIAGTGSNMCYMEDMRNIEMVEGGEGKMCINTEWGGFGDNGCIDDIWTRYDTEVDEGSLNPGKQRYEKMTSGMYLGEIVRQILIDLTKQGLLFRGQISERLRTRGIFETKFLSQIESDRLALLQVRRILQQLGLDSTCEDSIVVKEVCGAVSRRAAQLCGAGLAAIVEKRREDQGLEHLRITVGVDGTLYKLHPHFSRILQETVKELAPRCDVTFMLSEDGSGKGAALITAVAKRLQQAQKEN
The experiment is described as follows: SAR analysis of small molecule inhibitors of hexokinase domain containing I (HKDC1). [Related pubchem assays (depositor defined):AID493160, AID493190]. It counts as functional.

In experiment [8] the target is T1, Hexokinase-1. Kind of experiment: HK1 enzyme inhibition by HKDC1 hits, SAR follow-up, selectivity assay for HKDC1 inhibitor project, biochemical, set 2, resazurin fluorescence coupled readout (AID 588356). It counts as functional. In general terms: Alamar Blue is a resazurin reagent that responds to reducing activity.
In experiment [9] the target is T2, Hexokinase HKDC1. Kind of experiment: HKDC1 hexokinase inhibitors, SAR follow-up, biochemical, set 2 (AID 588355). The class given is functional.
A further experiment concerns the target T3, Cytochrome P450 1A2 (Homo sapiens, UniProt P05177).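 Also: PubChem cytochrome P450 panel assay, CYP1A2 panel member.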
T3 sequence (P05177 whole entry): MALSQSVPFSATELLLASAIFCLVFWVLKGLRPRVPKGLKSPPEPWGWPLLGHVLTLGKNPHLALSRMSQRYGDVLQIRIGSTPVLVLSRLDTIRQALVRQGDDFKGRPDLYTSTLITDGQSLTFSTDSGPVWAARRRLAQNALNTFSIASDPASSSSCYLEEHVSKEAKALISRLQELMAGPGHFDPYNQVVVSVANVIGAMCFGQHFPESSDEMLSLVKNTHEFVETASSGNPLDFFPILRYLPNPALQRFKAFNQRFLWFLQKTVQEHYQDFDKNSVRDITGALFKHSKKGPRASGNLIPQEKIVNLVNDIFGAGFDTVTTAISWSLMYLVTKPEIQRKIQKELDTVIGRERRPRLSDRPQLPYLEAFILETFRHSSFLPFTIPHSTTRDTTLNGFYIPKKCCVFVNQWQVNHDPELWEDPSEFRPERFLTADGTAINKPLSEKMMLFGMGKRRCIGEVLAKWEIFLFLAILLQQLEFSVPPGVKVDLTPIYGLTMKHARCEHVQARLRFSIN

In experiment [10] the target is Voltage-gated inwardly rectifying potassium channel KCNH2 (Homo sapiens, UniProt Q12809). To be noted: Potency.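 Also: confirmatory quantitative high-throughput screen measuring inhibition of hERG channel activity.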
Voltage-gated inwardly rectifying potassium channel KCNH2, sequence (Q12809 whole entry): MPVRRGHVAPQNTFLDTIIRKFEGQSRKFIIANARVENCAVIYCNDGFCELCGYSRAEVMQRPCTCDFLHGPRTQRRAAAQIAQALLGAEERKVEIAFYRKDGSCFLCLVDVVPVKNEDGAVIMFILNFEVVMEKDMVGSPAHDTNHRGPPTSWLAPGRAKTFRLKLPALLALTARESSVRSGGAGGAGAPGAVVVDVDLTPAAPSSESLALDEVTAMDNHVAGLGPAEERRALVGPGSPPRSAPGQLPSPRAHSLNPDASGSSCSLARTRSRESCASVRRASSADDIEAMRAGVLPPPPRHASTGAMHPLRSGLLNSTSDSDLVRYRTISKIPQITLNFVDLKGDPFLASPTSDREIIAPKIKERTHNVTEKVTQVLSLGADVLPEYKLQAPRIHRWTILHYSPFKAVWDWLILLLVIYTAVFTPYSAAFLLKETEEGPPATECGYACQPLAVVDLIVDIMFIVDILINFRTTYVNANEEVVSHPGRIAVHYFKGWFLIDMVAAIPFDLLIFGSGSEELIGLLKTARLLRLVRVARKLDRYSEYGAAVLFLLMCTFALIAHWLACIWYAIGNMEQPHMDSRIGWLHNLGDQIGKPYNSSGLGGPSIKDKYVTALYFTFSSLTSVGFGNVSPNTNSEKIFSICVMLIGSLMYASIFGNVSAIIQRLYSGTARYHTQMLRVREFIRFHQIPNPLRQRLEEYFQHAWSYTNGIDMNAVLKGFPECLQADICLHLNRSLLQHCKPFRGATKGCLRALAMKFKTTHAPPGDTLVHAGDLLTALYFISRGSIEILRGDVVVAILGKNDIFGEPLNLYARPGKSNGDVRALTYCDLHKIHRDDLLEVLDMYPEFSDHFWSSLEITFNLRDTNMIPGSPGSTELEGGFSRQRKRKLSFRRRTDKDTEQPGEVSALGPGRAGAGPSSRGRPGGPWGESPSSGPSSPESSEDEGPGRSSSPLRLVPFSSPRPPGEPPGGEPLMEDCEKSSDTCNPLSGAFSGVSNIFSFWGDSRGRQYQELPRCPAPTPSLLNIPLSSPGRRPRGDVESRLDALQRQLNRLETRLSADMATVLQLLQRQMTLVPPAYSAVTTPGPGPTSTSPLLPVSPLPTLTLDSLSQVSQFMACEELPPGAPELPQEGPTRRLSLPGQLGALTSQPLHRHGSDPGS

Delta-type opioid receptor, sequence (P41143 whole entry): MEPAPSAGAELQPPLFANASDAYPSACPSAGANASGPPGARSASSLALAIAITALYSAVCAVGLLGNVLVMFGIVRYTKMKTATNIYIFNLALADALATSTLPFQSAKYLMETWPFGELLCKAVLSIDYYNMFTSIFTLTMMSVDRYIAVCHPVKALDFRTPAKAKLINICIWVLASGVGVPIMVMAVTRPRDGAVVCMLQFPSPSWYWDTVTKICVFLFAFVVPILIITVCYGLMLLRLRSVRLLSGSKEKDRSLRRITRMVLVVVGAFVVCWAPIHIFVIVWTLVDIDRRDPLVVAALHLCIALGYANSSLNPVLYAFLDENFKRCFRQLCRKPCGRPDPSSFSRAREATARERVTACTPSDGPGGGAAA
5-hydroxytryptamine receptor 5A, sequence (P47898 whole entry): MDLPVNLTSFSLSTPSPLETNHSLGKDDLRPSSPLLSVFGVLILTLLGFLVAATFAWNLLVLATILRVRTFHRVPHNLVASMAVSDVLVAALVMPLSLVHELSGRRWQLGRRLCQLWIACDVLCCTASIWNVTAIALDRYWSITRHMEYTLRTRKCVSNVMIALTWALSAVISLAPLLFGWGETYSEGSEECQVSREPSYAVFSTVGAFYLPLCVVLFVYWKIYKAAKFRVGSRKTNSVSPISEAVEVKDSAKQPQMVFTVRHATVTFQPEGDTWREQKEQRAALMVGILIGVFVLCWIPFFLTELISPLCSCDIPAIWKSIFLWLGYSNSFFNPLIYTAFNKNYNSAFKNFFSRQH
Nonstructural protein 1, sequence (Q194T2 whole entry): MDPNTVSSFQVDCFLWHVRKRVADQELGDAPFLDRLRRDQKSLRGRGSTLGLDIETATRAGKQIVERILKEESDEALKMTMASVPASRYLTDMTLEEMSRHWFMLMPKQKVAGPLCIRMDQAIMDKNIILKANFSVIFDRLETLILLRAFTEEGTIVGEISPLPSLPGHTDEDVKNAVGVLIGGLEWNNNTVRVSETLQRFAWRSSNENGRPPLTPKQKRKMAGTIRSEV
Mu-type opioid receptor, sequence (P35372 whole entry): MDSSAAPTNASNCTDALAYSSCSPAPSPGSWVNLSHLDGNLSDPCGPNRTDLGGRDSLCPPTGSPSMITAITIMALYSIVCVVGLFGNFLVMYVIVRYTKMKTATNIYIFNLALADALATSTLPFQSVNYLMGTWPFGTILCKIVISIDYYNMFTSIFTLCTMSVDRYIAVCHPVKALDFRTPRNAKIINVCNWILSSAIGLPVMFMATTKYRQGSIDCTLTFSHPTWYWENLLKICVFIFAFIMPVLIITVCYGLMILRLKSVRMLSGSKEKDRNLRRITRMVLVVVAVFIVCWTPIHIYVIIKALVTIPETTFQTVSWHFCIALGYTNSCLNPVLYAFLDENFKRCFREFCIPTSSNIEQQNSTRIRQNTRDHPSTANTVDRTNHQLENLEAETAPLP

As to `O=C(C=P(c1ccccc1)(c1ccccc1)c1ccccc1)c1ccccc1-c1ccccc1C(=O)C=P(c1ccccc1)(c1ccccc1)c1ccccc1`, the concentration for half-maximal inhibition (IC50) (usually the concentration needed to halve the response being measured) on Nonstructural protein 1 is 58.5 µM (active); with MDCK [4], 2.54 µM (active). In addition, the half-maximal activity concentration (AC50) (commonly the midpoint of the concentration-response curve, whichever way the signal moves) in [1] is 8.19 µM (active). The cytotoxic concentration (CC50) (in general, the concentration at which the toxic effect on the cells reaches its halfway point) in the experiment on Vero was 3.43 µM (active); in the experiment on MDCK [2], 6.63 µM (active). Further, the EC50 (in experiment [3]; at Mu-type opioid receptor; in experiment [5]) was > 92.5 µM (inactive) throughout.
Consider `O=C(O)CCSc1cc(NS(=O)(=O)c2ccccc2)c2ccccc2c1O`, for which the figures for the IC50 on Hexokinase-1 [6] and on Hexokinase HKDC1 [7] were 62.4 µM (inactive) and 7.53 µM (active), respectively.
Consider `Cc1ccccc1N1C(=O)c2ccccc2C1Nc1ccc(Cl)cc1` (centres undefined), for which the IC50 at Hexokinase-1 [8] and on Hexokinase HKDC1 [9] was > 80 µM (inactive) in each case.
Take `CC(=O)N[C@@H](Cc1c[nH]c2ccccc12)C(=O)OCc1cc(C(F)(F)F)cc(C(F)(F)F)c1` [L-732138]: the concentration at half-maximal activity (AC50) on Cytochrome P450 1A2 was 31.6 µM (inconclusive); in [10], 12.6 µM (inconclusive).
